This note sets out measurements from EP4635969A1, “NOVEL GLUCOCORTICOID, METHOD FOR PREPARING SAME, AND USE THEREOF” (Tianjin Pharmaceutical Biotechnology Co., Ltd., priority 2022, dated 2024).

Where two headings read alike, the source gives them in different places.

A short description of data set [1]: Pharmacokinetic (PK) experiment in rats. It is filed as in vivo, male SD rats. The settings on record: same experimental conditions. Here is the method:
Pharmacological Example 11. Pharmacokinetic (PK) Experiment in Rats
The solution was prepared before administration.
Animals: 6 male SD rats, SPF grade (Beijing Vital River Laboratory Animal Technology Co., Ltd.).
Animal grouping: The animals were weighed prior to administration, and the dosage was calculated based on body weight. The animals in the oral administration group were fasted overnight (10-14 hours) before administration, and food was reintroduced 4 hours post-administration. Table 23. Animal grouping and drug administration dosages for pharmacokinetic (PK) experiment in rats
Blood collection time points: Blood was collected from the jugular vein at 2 min, 5 min, 15 min, 30 min, 1 h, 2 h, 4 h, 8 h, and 24 h after administration. Approximately 0.25 mL of blood was collected for each sample, anticoagulated with heparin sodium, and then placed on ice immediately.
Plasma sample processing: Blood samples were placed on ice after collection and centrifuged to separate plasma within 1 hour (centrifugation conditions: 6000 rpm, 3 minutes, 2-8 °C ). Plasma samples were stored in a -80°C freezer before analysis.
Data processing: Pharmacokinetic parameters were calculated using Phoenix WinNonlin 8.2.0 based on the plasma drug concentration data at different time points.

The target in data set [2] is T1, glucocorticoid receptor (GR) (Homo sapiens, UniProt P04150).
T1 sequence (P04150 521-777): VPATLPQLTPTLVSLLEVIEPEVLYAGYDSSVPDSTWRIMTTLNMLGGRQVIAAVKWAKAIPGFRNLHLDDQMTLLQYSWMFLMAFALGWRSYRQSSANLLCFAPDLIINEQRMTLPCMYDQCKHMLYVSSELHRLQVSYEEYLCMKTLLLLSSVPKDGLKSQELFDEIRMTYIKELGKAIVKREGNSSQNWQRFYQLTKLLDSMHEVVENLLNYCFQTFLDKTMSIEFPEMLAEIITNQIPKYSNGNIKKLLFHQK
Nature of the data set: Assay for agonist activity on glucocorticoid receptor (luciferase reporter, HEK293 cells transfected with pBIND-GR plasmid). It counts as cell-based. In a few lines: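 Readout is luciferase luminescence, with EC50 derived by nonlinear fitting. Compounds ran at 10 concentrations (4-fold steps, top 10 µM, duplicate wells) on pBIND-GR-transfected HEK293 cells in phenol red-free DMEM plus 5% charcoal-stripped serum; 0.1% DMSO served as blank.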

For data set [3], the system named is dry eye syndrome model New Zealand rabbits. Nature of the data set: Dry eye syndrome experiment (benzalkonium chloride model): tear film break-up time. It is filed as in vivo, male New Zealand White rabbits. The settings on record: compared with the model group.
The nature of data set [4]: Stability in animal lung tissue homogenate, skin tissue homogenate and aqueous humor. It counts as in vitro ADME.
In data set [5] the test system is dry eye syndrome model New Zealand rabbits. Put plainly: Dry eye syndrome experiment (benzalkonium chloride model): tear secretion test with phenol red cotton threads. It counts as in vivo, male New Zealand White rabbits. The note with it: compared with the model group.
Data set [6] concerns intraocular pressure of guinea pigs. Put plainly: Adverse reactions of continuous ocular administration: intraocular pressure. It is filed as in vivo. Here is the method:
Pharmacological Example 9: Experiment on Adverse Reactions of Continuous Ocular Administration in Guinea Pigs
Test samples: Compounds 17 and 23 were prepared as 5 mg/5 mL ophthalmic suspensions with reference to the formulation of Fluorometholone Eye Drops, and stored at room temperature protected from light until use.
Positive control drug: Fluorometholone Eye Drops (specification: 5 mL/5 mg; Santen Pharmaceutical (CHINA) Co., Ltd.; Lot No.: 1FM6545), Loteprednol Etabonate Eye Drops (specification 0.5% (5 mg/mL); Shandong Bausch & Lomb Freda Pharmaceutical Co., Ltd; Lot No. 386521), stored at room temperature protected from light until use.
Animals: 50 guinea pigs, conventional grade, with an equal number of males and females, weighing 300-350 g..
Animal grouping: After 5 days of adaptive feeding, the guinea pigs were randomly divided into 5 groups based on body weight. Group 1 was the blank control group, and 50 µL of normal saline was dropped into the eyes (bilateral) of the guinea pigs. Groups 2 to 5 were the fluorometholone group, loteprednol group, compound 17 group, and compound 23 group, respectively, and the corresponding drugs were dropped into the eyes (bilateral) of the guinea pigs. Table 19. Animal grouping and drug administration dosages for the experiment on adverse reactions of continuous ocular administration in guinea pigs
Intraocular pressure measurement time: The intraocular pressure of animals in each group was measured before administration and on days 7, 14, 21, and 28 post-administration.

For data set [7], the system named is uveitis model rats. Put plainly: Anti-uveitis pharmacodynamic experiment (LPS model): ocular pathological score. It is filed as in vivo, male SD rats. The settings on record: compared with the model group.
Experimental: Pharmacodynamic Experiment on Anti-Uveitis
Positive control drug: Fluorometholone Eye Drops (specification: 5 mL/5 mg; Santen Pharmaceutical (CHINA) Co., Ltd.; Lot No. : J20180068) was used as the positive control drug and stored at room temperature protected from light until use.
Fifty male SD rats underwent a one-week adaptive feeding period. […] Groups 2 to 5 were used to establish rat uveitis models by single subcutaneous injection of 1 mg/kg LPS (Salmonella; Sigma; Lot No. 0000164114) into the plantar tissue of the hindpaw. Salmonella endotoxin was dissolved in normal saline to prepare an injection solution at a concentration of 2 mg/mL, which was injected subcutaneously at 1 mg/kg into the plantar tissue of one paw of the rats. Group 1 was injected with an equal volume of normal saline.
At the end of the experiment, photos of the rats' eyes were taken using a slit-lamp microscope, and the differences in ocular lesions of rats among groups were compared and analyzed.
Statistical analysis was performed using SPSS software. Measurement data were expressed as mean ± standard deviation. One-way ANOVA was used for intergroup comparisons. For data with homogeneous variance, LSD test was used; for data with heterogeneous variance, Dunnett-t test was used. A value of P < 0.05 was considered statistically significant.
Data set [8] relates to epidermal layer in rats. Nature of the data set: Adverse reactions of continuous dermal administration: thickness of the epidermal layer (H&E sections). It counts as in vivo, SD rats. The settings on record: for thickness of the epidermal layer after continuous dermal administration: compared with the blank control group. From the text: Pharmacological Example 10: Experiment on Adverse Reactions of Continuous Dermal Administration in Rats
Animals: SD rats, SPF grade, with an equal number of males and females, weighing 230-250 g.
Animal grouping: After adaptive feeding, the rats were randomly divided into 4 groups. […] One day before administration, the backs of rats were shaved at an area of 5 cm × 6 cm. […] The rats in the blank control group were applied with the blank matrix of corresponding mass on their backs, twice a day for a consecutive week. Table 21. Animal grouping and drug administration dosages for the experiment on adverse reactions of continuous dermal administration in rats
To examine the effects of continuous administration of the test samples on the epidermal layer, the back skin tissues were stained with hematoxylin and eosin (H&E) (magnification ×40), and the thickness of the epidermal layer was quantitatively measured based on the H&E-stained sections.

Where [9] appears, read: GR agonist EC50 (nM), HEK293 cells transfected with pBIND-GR, luciferase signal.

For `C[C@]12C=CC(=O)C=C1CC[C@H]1[C@@H]3C[C@H]4OC(c5ccc(COC6CCOC6=O)cc5)O[C@@]4(C(=O)CO)[C@@]3(C)C[C@H](O)[C@@]12F` (stereo partly drawn) [Compound 16, (6aS,6bR,7S,8aS,8bS,11aR,12aS,12bS)-6b-Fluoro-7-hydroxy-8b-(2-hydroxyacetyl)-6a,8a-dimethyl-10-(4-(((2-oxotetrahydrofuran-3-yl)oxy)methyl)phenyl)-1,2,6a,6b,7,8,8a,8b,11a,12,12a,12b-do decahydro-4H-naphtho[2',1':4,5]indeno[1,2-d][1,3]dioxol-4-one], in data set [1], the “pharmacokinetic properties (plasma clearance rate, systemic exposure)” value (“pharmacokinetic properties” below) is on record as “pharmacokinetic properties similar to those of compound 8”. The EC50 in data set [2] (setting [9]) amounted to 0.43 nM; in data set [2] (Nuclear receptor enzyme activity (nM) GR, EC50 of agonist activity, HEK293 reporter cells), 0.43 nM. The “tear film break-up time” value in data set [3] is listed as “significantly increased the tear film break-up time”. Further, in data set [4], the “stability in animal lung tissue homogenate, skin tissue homogenate, and aqueous humor” value (“stability” below) is “relatively stable”. Besides, the tear secretion result in data set [5] was “significantly increased the tear secretion”. The “intraocular pressure after continuous ocular administration” value in data set [6] is given as “no abnormal intraocular pressure observed”. In data set [7], the “ocular abnormalities / ocular pathological score” value is reported as “significantly improved ocular abnormalities”. The “thickness of the epidermal layer after continuous dermal administration” value (“thickness of the epidermal layer” below) in data set [8] was “no significant changes in the thickness of the epidermal layer observed”.

For the compound `C[C@]12C=CC(=O)C=C1CC[C@H]1[C@@H]3C[C@H]4OC(c5ccc(CSC6CCOC6=O)nc5)O[C@@]4(C(=O)CO)[C@@]3(C)C[C@H](O)[C@@]12Cl` (stereo partly drawn) [Compound 48, (6aS,6bR,7S,8aS,8bS,11aR,12aS,12bS)-6b-Chloro-7-hydroxy-8b-(2-hydroxyacetyl)-6a,8a-dimethyl-10-(6-(((2-oxotetrahydrofuran-3-yl)thio)methyl)pyridin-3-yl)-1,2,6a,6b,7,8,8a,8b,11a,12,12a,12 b-dodecahydro-4H-naphtho[2',1':4,5]indeno[1,2-d][1,3]dioxol-4-one], in data set [1], the “pharmacokinetic properties” value is “pharmacokinetic properties similar to those of compound 8”. In data set [2] (setting [9]), this compound came in with an EC50 of 0.37 nM. Further, in data set [3], the “tear film break-up time” value is “significantly increased the tear film break-up time”. In addition, the “stability” value in data set [4] was “relatively stable”. The tear secretion result in data set [5] is “significantly increased the tear secretion”. Further, the “intraocular pressure after continuous ocular administration” value in data set [6] is “no abnormal intraocular pressure observed”. For the same compound, the “ocular abnormalities / ocular pathological score” value in data set [7] is “significantly improved ocular abnormalities”. The “thickness of the epidermal layer” value in data set [8] is listed as “no significant changes in the thickness of the epidermal layer observed”.

For the compound `C[C@]12C=CC(=O)C=C1CC[C@H]1[C@@H]3C[C@H]4OC(c5ccc(CSC6CCOC6=O)cn5)O[C@@]4(C(=O)CO)[C@@]3(C)C[C@H](O)[C@@]12Cl` (stereo partly drawn) [Compound 51, (6aS,6bR,7S,8aS,8bS,11aR,12aS,12bS)-6b-Chloro-7-hydroxy-8b-(2-hydroxyacetyl)-6a,8a-dimethyl-10-(5-(((2-oxotetrahydrofuran-3-yl)thio)methyl)pyridin-2-yl)-1,2,6a,6b,7,8,8a,8b,11a,12,12a,12 b-dodecahydro-4H-naphtho[2',1':4,5]indeno[1,2-d][1,3]dioxol-4-one], the “pharmacokinetic properties” value in data set [1] was “pharmacokinetic properties similar to those of compound 8”. This compound also showed an EC50 in data set [2] (setting [9]) of 0.82 nM. In data set [3], the “tear film break-up time” value is on record as “significantly increased the tear film break-up time”. Besides, the “stability” value in data set [4] is listed as “relatively stable”. In data set [5], the tear secretion result is given as “significantly increased the tear secretion”. Further, in data set [6], the “intraocular pressure after continuous ocular administration” value is “no abnormal intraocular pressure observed”. The “ocular abnormalities / ocular pathological score” value in data set [7] was “significantly improved ocular abnormalities”. Further, the “thickness of the epidermal layer” value in data set [8] is recorded as “no significant changes in the thickness of the epidermal layer observed”.

Turning to `C[C@]12C=CC(=O)C=C1CC[C@H]1[C@@H]3C[C@H]4OC(c5ccc(CSC6CCOC6=O)cc5)O[C@@]4(C(=O)CO)[C@@]3(C)C[C@H](O)[C@@]12F` (stereo partly drawn) [Compound 17, (6aS,6bR,7S,8aS,8bS,11aR,12aS,12bS)-6b-Fluoro-7-hydroxy-8b-(2-hydroxyacetyl)-6a,8a-dimethyl-10-(4-(((2-oxotetrahydrofuran-3-yl)thio)methyl)phenyl)-1,2,6a,6b,7,8,8a,8b,11a,12,12a,12b-do decahydro-4H-naphtho[2',1':4,5]indeno[1,2-d][1,3]dioxol-4-one], the “pharmacokinetic properties” value in data set [1] is recorded as “pharmacokinetic properties similar to those of compound 8”. Moreover, the EC50 in data set [2] (EC50 of agonist activity, HEK293 reporter cells, read-out: Nuclear receptor enzyme activity (nM) GR) came to 0.3 nM; in data set [2] (HEK293 cells transfected with pBIND-GR, luciferase signal, read-out: GR agonist EC50) it was 0.3 nM. Further, the “tear film break-up time” value in data set [3] is “significantly increased the tear film break-up time”. In data set [4], the “stability” value is reported as “relatively stable”. In data set [5], the tear secretion entry was “significantly increased the tear secretion”. Further, the “intraocular pressure after continuous ocular administration” value in data set [6] is recorded as “no abnormal intraocular pressure was observed”. Besides, in data set [6] (D0, before administration, 50 µL/eye (compounds and fluorometholone 1 mg/mL, loteprednol 5 mg/mL)), the “Intraocular pressure of guinea pigs (mmHg) D0” value came out at 13.5 ± 0.6 mmHg. Further, the “Intraocular pressure of guinea pigs (mmHg) D7” value in data set [6] (D7, 50 µL/eye (compounds and fluorometholone 1 mg/mL, loteprednol 5 mg/mL)) worked out at 16.0 ± 1.4 mmHg. Moreover, the “Intraocular pressure of guinea pigs (mmHg) D14” value in data set [6] (D14, 50 µL/eye (compounds and fluorometholone 1 mg/mL, loteprednol 5 mg/mL)) stood at 14.5 ± 1.9 mmHg. Further, in data set [6] (D21, 50 µL/eye (compounds and fluorometholone 1 mg/mL, loteprednol 5 mg/mL)), the “Intraocular pressure of guinea pigs (mmHg) D21” value is given as 13.3 ± 2.5 mmHg. For the same compound, the “Intraocular pressure of guinea pigs (mmHg) D28” value in data set [6] (D28, 50 µL/eye (compounds and fluorometholone 1 mg/mL, loteprednol 5 mg/mL)) was 14.3 ± 1.5 mmHg. In data set [7], the “ocular abnormalities / ocular pathological score” value was “significantly improved ocular abnormalities”. Also, the “Epidermal layer thickness (µm)” value in data set [8] (100 mg cream on the back twice a day for a week (compounds 1 mg/g, Compound Dexamethasone Acetate 0.75 mg/g)) stood at 23.5 ± 3.5 µm. The “thickness of the epidermal layer” value in data set [8] is listed as “no significant changes in the thickness of the epidermal layer were observed”.
